Experimental data reported in article PMC4809600, “The Influence of Chronic Wound Extracts on Inflammatory Cytokine and Histatin Stability” (PLoS ONE, 2016).

Test system: dermal fibroblasts
Experiment: Fibroblast wound healing scratch assay (migration)
Format: cell-based, human
Details: serum-free medium, histatins 5 μM, rhIL-6 125 ng/ml, rhCXCL8 250 ng/ml, (E0-E96)/(U0-U96), unexposed = 1; for Migration of dermal fibroblasts in scratch assay, 8 h exposure: 8 h exposure then 88 h without, read at 96 h; for Migration of dermal fibroblasts in scratch assay, 96 h exposure: continuous 96 h exposure
Description: Dermal fibroblasts were isolated from healthy human abdominal skin from patients undergoing corrective abdominal plastic surgery. After removal of all adipose tissue, the skin was washed in PBS and incubated overnight on dispase II (Roche, Mannheim, Germany) at 4°C. The next day, epidermis was removed and discarded and the dermis was incubated in collagenase type II (Gibco, Life Technologies, Grand Island, USA)/dispase II in Hanks balanced salt solution (HBSS) (Gibco) at 37°C for 2–3 h. Fibroblast medium consisting of DMEM (Lonza, Verviers, Belgium) containing 1% ultroserG (UG) (Biosepra, Cergy-Saint-Christopher, France) and 1% penicillin-streptomycin (P/S) (Gibco) was added and the solution was passed through an 100 μm and 40 μm cell strainer (Becton Dickinson Falcon, Erembodegem, Belgium). A single cell suspension was seeded at ± 3.5 x 10^4 cells cm^2 and further cultured in fibroblast medium. Medium was changed twice a week and cultures were passaged when 90% confluent using 0.5mM EDTA/0.05% trypsin (Gibco). The cells were maintained at 37°C in a humidified atmosphere containing 5% CO2 and used for experiments at passage 3.
A wound healing scratch assay was performed to determine the effect of histatins, rhIL-6 and rhCXCL8 on fibroblast migration. Confluent monolayers of fibroblasts in a 48-well plate (Costar, Corning Incorporated, New York, USA) were incubated with serum-free medium (DMEM containing 1% P/S and 0.1% bovine serum albumin (Sigma-Aldrich)) for 96 h to ensure minimum spontaneous migration. Next, a scratch was drawn with a disposable plastic pipette tip. Cultures were exposed to Hst1, cHst1, Hst2 and mad-Hst1 (all used at a concentration of 5μM), rhIL-6 (125 ng/ml), rhCXCL8 (250 ng/ml) and vehicle (H2O) in serum free medium. Two experimental set-ups were studied: i) cells were exposed only during the first 8 h to histatins and cytokines and then transferred to vehicle supplemented medium for an additional 88 h; or ii) cells were exposed to histatins and cytokines during the entire 96 h study period. Phase contrast micrographs were taken directly after drawing the scratch and after four days (96 h) of exposure. Data were analyzed using an image processing algorithm that has been described in detail in our previous work. The area of the scratch covered by migrating fibroblasts was determined using the following equation: (E0-E96)/(U0-U96), in which: E = exposure to a condition (IL-6, CXCL8 and histatins); U = unexposed (serum-free medium); E0 and U0 = area of the scratch at T = 0 h; E96 and U96 = area of the scratch (not covered with cells) after 96 h. In this way, in each exposed group (IL-6, CXCL8, histatins) the resurfaced area at 96 h is compared to its own 0 h time point and then set relative to the unexposed group (serum-free medium).

[1] = experiment 1, average of four replicates
[2] = experiment 2, average of four replicates
[3] = experiment 3, average of four replicates

Substance: cyclo(DNLPETGGDSHEKRHHGYRRKFHEKHHSHREFPFYGDYGSNYLY) [cHst1]
- Migration of dermal fibroblasts in scratch assay, 8 h exposure [1]: 1.6
- Migration of dermal fibroblasts in scratch assay, 8 h exposure [2]: 1.24
- Migration of dermal fibroblasts in scratch assay, 8 h exposure [3]: 1.53
- Migration of dermal fibroblasts in scratch assay, 96 h exposure [1]: 1.46
- Migration of dermal fibroblasts in scratch assay, 96 h exposure [2]: 1.26
- Migration of dermal fibroblasts in scratch assay, 96 h exposure [3]: 1.33
